From ChEMBL document CHEMBL5365531, “Structure-Activity Relationship Studies of SARS-CoV-2 Main Protease Inhibitors Containing 4-Fluorobenzothiazole-2-carbonyl Moieties” (J Med Chem, 2023)

What was measured:
SARS-CoV-2 [1] = assay: Antiviral activity against SARS-CoV-2 JPN/TY/WK-521 infected in Vero E6 cells preincubated with cells for 1 day followed by viral infection and measured after 3 days by qRT-PCR analysis; format: functional, organism-based; details: Severe acute respiratory syndrome coronavirus 2, JPN/TY/WK-521, Vero C1008
[2] = Cytotoxicity against African green monkey Vero E6 cells incubated for 3 days by WST-8 assay; format: toxicity, cell-based, Vero C1008; details: chlorocebus sabaeus, time 3 day
SARS-CoV-2 [3] = assay: Antiviral activity against SARS-CoV-2 JPN/TY/WK-521 infected in Vero E6 cells assessed as fold change preincubated with cells for 1 day followed by viral infection and measured after 3 days by qRT-PCR analysis relative to 7-fluoro-N-((S)-1-(((S)-1-(4-fluorobenzo[d]thiazol-2-yl)-1-oxo-3-((S)-2-oxopyrrolidin-3-yl)propan-2-yl)amino)-3,3-dimethyl-1-oxobutan-2-yl)-4-methoxy-1H-indole-2-carboxamide; format: functional, Severe acute respiratory syndrome coronavirus 2; details: time 4 day
SARS-CoV-2 [4] = assay: Antiviral activity against SARS-CoV-2 infected in Vero E6 cells preincubated with cells for 1 day followed by viral infection and measured after 3 days by qRT-PCR analysis; format: functional, organism-based; details: Severe acute respiratory syndrome coronavirus 2, Vero C1008
SARS-CoV-2 [5] = assay: Antiviral activity against SARS-CoV-2 infected in Vero E6 cells assessed as fold change preincubated with cells for 1 day followed by viral infection and measured after 3 days by qRT-PCR analysis relative to YH-53; format: functional, Severe acute respiratory syndrome coronavirus 2; details: time 4 day
SARS-CoV-2 [6] = assay: Antiviral activity against SARS-CoV-2 JPN/TY/WK-521 infected in Vero E6 cells assessed as fold change preincubated with cells for 1 day followed by viral infection and measured after 3 days by qRT-PCR analysis relative to TKB245; format: functional, Severe acute respiratory syndrome coronavirus 2; details: time 4 day
PBMC = assay: Cytotoxicity against human PBMC cells assessed as reduction in cell viability at 3 uM incubated for 12 days by CCK-8 assay; format: toxicity, cell-based; details: 288 h, time 12 day
MOLT-4 = assay: Cytotoxicity against human MOLT-4 cells assessed as reduction in cell viability at 3 uM incubated for 12 days by CCK-8 assay; format: toxicity, cell-based; details: molt-4, 288 h, time 12 day
MT2 = assay: Cytotoxicity against human MT2 cells assessed as reduction in cell viability at 3 uM incubated for 12 days by CCK-8 assay; format: toxicity, cell-based; details: mt2, 288 h, time 12 day

Structure (SMILES) | EC50 (SARS-CoV-2 [1]) | CC50 at 72 h [2] | fold change (FC) (SARS-CoV-2 [3]) | fold change (FC) (SARS-CoV-2 [6]) | also measured
CC(C)(C)[C@H](NC(=O)C(F)(F)F)C(=O)N1C[C@H]2[C@@H]([C@H]1C(=O)N[C@@H](C[C@@H]1CCNC1=O)C(=O)c1nc3ccccc3s1)C2(C)C | 15 nM | > 100000 nM | 0.071 | – | –
COc1cccc2[nH]c(C(=O)N3C[C@H]4[C@@H]([C@H]3C(=O)N[C@@H](C[C@@H]3CCNC3=O)C(=O)c3nc5ccccc5s3)C4(C)C)cc12 | 2500 nM | > 100000 nM | 11 | – | –
COc1ccc(F)c2[nH]c(C(=O)N[C@H](C(=S)N[C@@H](C[C@@H]3CCNC3=O)C(=O)c3nc4c(F)cccc4s3)C(C)(C)C)cc12 | – | > 100000 nM | – | – | EC50 (SARS-CoV-2 [4]): 340 nM; fold change (FC) (SARS-CoV-2 [5]): 0.16
CC(C)(C)[C@H](NC(=O)C(F)(F)F)C(=O)N1C[C@H]2[C@@H]([C@H]1C(=O)N[C@@H](C[C@@H]1CCNC1=O)C(=O)c1nc3c(Br)cccc3s1)C2(C)C | 63 nM | > 100000 nM | – | 2.9 | –
CC(C)(C)[C@H](NC(=O)C(F)(F)F)C(=O)N1C[C@H]2[C@@H]([C@H]1C(=O)N[C@@H](C[C@@H]1CCNC1=O)C(=O)c1nc3c(Cl)cccc3s1)C2(C)C | 19 nM | > 100000 nM | – | 0.86 | –
CC(C)(F)[C@H](NC(=O)C(F)(F)F)C(=O)N1C[C@H]2[C@@H]([C@H]1C(=O)N[C@@H](C[C@@H]1CCNC1=O)C(=O)c1nc3c(F)cccc3s1)C2(C)C | 250 nM | > 100000 nM | – | 21 | –
COc1cccc2[nH]c(C(=O)N[C@H](C(=O)N[C@@H](C[C@@H]3CCNC3=O)C(=O)c3nc4ccccc4s3)C(C)(C)C)cc12 | – | > 100000 nM | – | – | EC50 (SARS-CoV-2 [4]): 2200 nM
CC1(C)[C@@H]2[C@@H](C(=O)N[C@@H](C[C@@H]3CCNC3=O)C(=O)c3nc4c(F)cccc4s3)N(C(=O)c3cc4c(F)ccc(F)c4[nH]3)C[C@@H]21 | 750 nM | > 100000 nM | 3.1 | – | –
CC(C)(C)[C@H](NC(=O)C(F)(F)F)C(=O)NC1(C(=O)N[C@@H](C[C@@H]2CCNC2=O)C(=O)c2nc3c(F)cccc3s2)CCC(F)(F)C1 (some centres not stated) | 2400 nM | > 100000 nM | – | 90 | –
COc1ccc(F)c2[nH]c(C(=O)N3C[C@H]4[C@@H]([C@H]3C(=O)N[C@@H](C[C@@H]3CCNC3=O)C(=O)c3nc5c(F)cccc5s3)C4(C)C)cc12 | 560 nM | > 100000 nM | 2.7 | – | –
CC(C)C[C@H](NC(=O)[C@@H](NC(=O)C(F)(F)F)C(C)(C)C)C(=O)N[C@@H](C[C@@H]1CCNC1=O)C(=O)c1nc2c(F)cccc2s1 | 360 nM | > 100000 nM | 1 | – | –
CC1(C)[C@@H]2[C@@H](C(=O)N[C@@H](C[C@@H]3CCNC3=O)C(=O)c3nc4c(F)cccc4s3)N(C(=O)[C@H](CCC(F)(F)F)NC(=O)C(F)(F)F)C[C@@H]21 | 590 nM | > 100000 nM | – | 14 | –
COc1ccc(F)c2[nH]c(C(=O)N[C@H](C(=O)N[C@@H](C[C@@H]3CCNC3=O)C(=O)c3nc4c(F)cccc4s3)C(C)(C)C)cc12 | – | > 100000 nM | – | – | EC50 (SARS-CoV-2 [4]): 290 nM; fold change (FC) (SARS-CoV-2 [5]): 0.13
CC1(C)[C@@H]2[C@@H](C(=O)N[C@@H](C[C@@H]3CCNC3=O)C(=O)c3nc4c(F)cccc4s3)N(C(=O)[C@H](CC(F)(F)F)NC(=O)C(F)(F)F)C[C@@H]21 | 2800 nM | > 100000 nM | – | 34 | –
CC(C)(C)[C@H](NC(=O)C(F)(F)F)C(=O)N1C[C@@H]2CCC[C@@H]2[C@H]1C(=O)N[C@@H](C[C@@H]1CCNC1=O)C(=O)c1nc2c(F)cccc2s1 | 95 nM | > 100000 nM | – | 1.6 | –
CC(C)C(=O)OC[C@H]1O[C@@H](n2ccc(NO)nc2=O)[C@H](O)[C@@H]1O [MOLNUPIRAVIR] | – | – | – | – | Activity (PBMC): Non-Toxic; Activity (MOLT-4): Non-Toxic; Activity (MT2): Toxic
